In US9844533B2, “Antioxidant-containing food composition for use in inhibiting histamine pathways in companion animals” (Hill's Pet Nutrition, Inc., priority 2008, dated 2017):

How the values were obtained:
Type in all cases: cell-based
[1] = system: histamine release and signaling pathways (gene networks); test: Gene network enrichment analysis of cat cell lines treated with lipoic acid; conditions: four cat cell lines treated with lipoic acid
Method: (§1) The gene expression data from four cat cell lines treated with lipoic acid was analyzed.

[2] = system: NOS3 (Nitric oxide synthase, endothelial); test: Gene expression in four cat cell lines treated with or without lipoic acid; conditions: Table 5; four cat cell lines with vs without lipoic acid; p<0.05
Method: as §1

[3] = system: PRKAR1A (cAMP-dependent protein kinase type I-alpha regulatory subunit); test: as above; conditions: Table 5; four cat cell lines with vs without lipoic acid; p<0.05
Method: as §1

[4] = system: RELA (Transcription factor p65); test: as above; conditions: Table 5; four cat cell lines with vs without lipoic acid; p<0.05
Method: as §1

[5] = system: REL (C-Rel proto-oncogene protein); test: as above; conditions: Table 5; four cat cell lines with vs without lipoic acid; p<0.05
Method: as §1

[6] = system: ADCY2 (Adenylate cyclase type 2); test: as above; conditions: Table 5; four cat cell lines with vs without lipoic acid; p<0.05
Method: as §1

[7] = system: PNPLA8 (Calcium-independent phospholipase A2-gamma); test: as above; conditions: Table 5; four cat cell lines with vs without lipoic acid; p<0.05
Method: as §1

[8] = system: MAP2K1 (Dual specificity mitogen-activated protein kinase 1); test: as above; conditions: Table 4; four cat cell lines with vs without lipoic acid; p<0.05
Method: as §1

[9] = system: TNF (Tumor necrosis factor precursor); test: as above; conditions: Table 5; four cat cell lines with vs without lipoic acid; p<0.05
Method: as §1

[10] = system: VCAM1 (Vascular cell adhesion protein 1 precursor); test: as above; conditions: Table 5; four cat cell lines with vs without lipoic acid; p<0.05
Method: as §1

[11] = system: MAPK1 (Mitogen-activated protein kinase 1); test: as above; conditions: four cat cell lines with vs without lipoic acid, p<0.05
Method: as §1

[12] = system: LTC4S (Leukotriene C4 synthase); test: as above; conditions: Table 4; four cat cell lines with vs without lipoic acid; p<0.05
Method: as §1

[13] = system: PLA2G2F (Group IIFA2 secretory phospholipase precursor); test: as above; conditions: Table 5; four cat cell lines with vs without lipoic acid; p<0.05
Method: as §1

[14] = system: ADCY7 (Adenylate cyclase type 7); test: as above; conditions: Table 5; four cat cell lines with vs without lipoic acid; p<0.05
Method: as §1

[15] = system: GAB2 (GRB2-associated-binding protein 2); test: Gene expression in four cat cell lines treated with or without lipoic acid (paired t test, GeneGo enrichment); conditions: Table 4; four cat cell lines with vs without lipoic acid; p<0.05
Method: as §1

## O=C(O)CCCCC1CCSS1 (stereo not drawn) [lipoic acid, alpha-lipoic acid]
[1]
  Regulation of key genes in histamine and IgE signaling networks: down regulated
[2]
  Signal (NOS3 gene expression change): −0.5503
[3]
  Signal (PRKAR1A gene expression change): −0.184
[4]
  Signal (RELA gene expression change): −0.429
[5]
  Signal (REL gene expression change): −0.4264
[6]
  Signal (ADCY2 gene expression change): 0.3925
[7]
  Signal (PNPLA8 gene expression change): −0.2652
[8]
  Signal (MAP2K1 gene expression change): −0.1574
[9]
  Signal (TNF gene expression change): 0.1797
[10]
  Signal (VCAM1 gene expression change): −0.7819|
[11]; Table 4
  Signal (MAPK1 gene expression change): −0.3117
[11]; Table 5
  Signal (MAPK1 gene expression change): −0.3117
[12]
  Signal (LTC4S gene expression change): −0.4586
[13]
  Signal (PLA2G2F gene expression change): 1.061
[14]
  Signal (ADCY7 gene expression change): 0.3988
[15]
  Signal (GAB2 gene expression change): −0.8668
